Reference: US10526502B2, “Container coating system” (SWIMC LLC, priority 2012, dated 2020)

Tested on: not listed separately
Assay: suitable genotoxicity assays (e.g., Ames II assay)
Type: cell-based
Conditions: not given
Description: A solution of 4,4′-methylenebis(2,6-di-t-butylphenol) (500 grams, 1.076 moles obtained from Albemarle Corporation) in anhydrous dimethylformamide (1.5 liters) was cooled to −10° C. and a solution of sodium tert-pentoxide (374 grams, 3.23 moles) in anhydrous dimethylformamide (1.5 liters) was added dropwise at −10 to −5° C. The mixture was stirred for 30 minutes at −10° C. Epichlorohydrin (1.9 liters, 24.2 moles) was added via dropping funnel at −10 to −5° C. The solution was allowed to warm up to room temperature and then was heated for 16 hours at a temperature of from 75 to 82° C. After cooling down to ambient temperature, the mixture was added to cold tap water (12 liters). Ethyl acetate (5 liters) was added to the mixture, which was stirred for 10 minutes and separated. The aqueous layer was extracted again with additional ethyl acetate (3 liters). The combined ethyl acetate extracts were washed twice with brine (2×6 liters), dried over anhydrous sodium sulfate (600 grams), and filtered. The solvent was removed under reduced pressure to give 887 grams of crude product as a purple oil. The crude product was dissolved in toluene (600 milliliters) and passed over a silica gel pad (1.4 kilograms), and eluted with a mixture of toluene and heptane (8 parts toluene to 2 parts heptane). The fractions containing product were combined and evaporated under reduced pressure. […]
For `CC(C)(C)c1cc(Cc2cc(C(C)(C)C)c(OCC3CO3)c(C(C)(C)C)c2)cc(C(C)(C)C)c1OCC1CO1` (stereo not shown) [Diglycidyl ether of 4,4′-methylenebis(2,6-di-tert-butylphenol)], the genotoxicity was “non-genotoxic”.
In the case of `CCCC(c1cc(C(C)(C)C)c(OCC2CO2)cc1C)c1cc(C(C)(C)C)c(OCC2CO2)cc1C` (stereo not shown) [Diglycidyl ether of 4,4′Butylidenebis(2-t-butyl-5-methylphenol))], the genotoxicity is reported as “non-genotoxic”.

Tested on: MCF-7, clone WS8, cells
Assay: MCF-7 cell proliferation assay of estrogenic activity
Type: cell-based, human
Conditions: logarithmic (base 10) Relative Proliferative Effect vs 17-beta estradiol; values 'expected or measured'
Source text: The MCF-7 assay is a useful test for assessing whether a polyhydric phenol compound is appreciably non-estrogenic. The MCF-7 assay uses MCF-7, clone WS8, cells to measure whether and to what extent a substance induces cell proliferation via estrogen receptor (ER)-mediated pathways. The method is described in “Test Method Nomination: MCF-7 Cell Proliferation Assay of Estrogenic Activity” submitted for validation by CertiChem, Inc. to the National Toxicology Program Interagency Center for the Evaluation of Alternative Toxicological Methods (NICEATM) on Jan. 19, 2006 (available online at iccvam.niehs.nih.gov/methods/endocrine/endodocs/SubmDoc.pdf).
A brief summary of the method of the aforementioned MCF-7 assay is provided below. MCF-7, clone WS8, cells are maintained at 37° C. in RMPI (Roswell Park Memorial Institute medium) containing Phenol Red (e.g., GIBCO Catalog Number 11875119) and supplemented with the indicated additives for routine culture. An aliquot of cells maintained at 37° C. are grown for two days in phenol-free media containing 5% charcoal stripped fetal bovine serum in a 25 cm^2 tissue culture flask. Using a robotic dispenser such as an EPMOTION™ 5070 unit from Eppendorf AG, MCF-7 cells are then seeded at 400 cells per well in 0.2 ml of hormone-free culture medium in CORNING™ 96-well plates from Corning Life Sciences. The cells are adapted for 3 days in the hormone-free culture medium prior to adding the chemical to be assayed for estrogenic activity. The media containing the test chemical is replaced daily for 6 days. At the end of the 7 day exposure to the test chemical, the media is removed, the wells are washed once with 0.2 ml of HBSS (Hanks' Balanced Salt Solution), and then assayed to quantify amounts of DNA per well using a micro-plate modification of the Burton diphenylamine (DPA) assay, which is used to calculate the level of cell proliferation. […]
Table I shown below includes exemplary preferred polyhydric phenol compounds of Formula II and their expected or measured logarithmic RPE values in the MCF-7 assay.
For `C[C@]12CC[C@@H]3c4ccc(O)cc4CC[C@H]3[C@@H]1CC[C@@H]2O` [17β-estradiol], the “Log RPE” value was 2.00.
With `Oc1ccc(Cc2ccc(O)cc2)cc1` [Bisphenol F] the “Log RPE” value was −2.
In the case of `O=S(=O)(c1ccc(O)cc1)c1ccc(O)cc1` [Bisphenol S], the “Log RPE” value is reported as −2.

Target: T1, human estrogen receptor (Homo sapiens, UniProt P03372)
T1 sequence (P03372 1-595): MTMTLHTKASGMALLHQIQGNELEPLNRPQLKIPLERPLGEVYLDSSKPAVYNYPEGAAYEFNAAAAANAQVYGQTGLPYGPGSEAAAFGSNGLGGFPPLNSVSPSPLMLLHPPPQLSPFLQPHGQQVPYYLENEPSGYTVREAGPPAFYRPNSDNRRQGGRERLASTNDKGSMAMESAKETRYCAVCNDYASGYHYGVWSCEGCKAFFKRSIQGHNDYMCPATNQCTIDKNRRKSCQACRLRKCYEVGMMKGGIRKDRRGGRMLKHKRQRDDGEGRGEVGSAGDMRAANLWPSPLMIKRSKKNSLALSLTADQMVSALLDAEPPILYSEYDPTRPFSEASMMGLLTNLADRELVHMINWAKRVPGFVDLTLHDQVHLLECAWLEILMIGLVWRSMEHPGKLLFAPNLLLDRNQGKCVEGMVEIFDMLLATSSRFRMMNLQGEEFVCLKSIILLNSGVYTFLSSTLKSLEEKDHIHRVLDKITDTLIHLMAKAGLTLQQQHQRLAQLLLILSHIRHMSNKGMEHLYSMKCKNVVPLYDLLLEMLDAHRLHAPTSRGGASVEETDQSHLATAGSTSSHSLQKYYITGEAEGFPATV
Assay: suitable in vitro assay whose results are directly correlated to the MCF-7 assay
Conditions: in vitro assay correlated to MCF-7 through common reference compounds
For `Cc1cc(Cc2cc(C)c(O)c(C)c2)cc(C)c1O` [Structure 6, 4,4′-methylenebis(2,6-dimethylphenol)], the estrogenic activity was “do not exhibit appreciable estrogenic activity”.
In the case of `CCCC(c1cc(C(C)(C)C)c(O)cc1C)c1cc(C(C)(C)C)c(O)cc1C` [Structure 7, 4,4′-butylidenebis(2-t-butyl-5-methylphenol)], the estrogenic activity is reported as “do not exhibit appreciable estrogenic activity”.
With `CC(C)(C)c1cc(Cc2cc(C(C)(C)C)c(O)c(C(C)(C)C)c2)cc(C(C)(C)C)c1O` [Structure 8, 4,4′-methylenebis(2,6-di-t-butylphenol)] the estrogenic activity was “do not exhibit appreciable estrogenic activity”.
With `Cc1cc(Cc2cc(C)cc(C(C)(C)C)c2O)c(O)c(C(C)(C)C)c1` [Structure 9] the estrogenic activity was “do not exhibit appreciable estrogenic activity”.
For `CC(C)(C)c1cc(O)c(C(C)(C)C)cc1O` [Structure 12, 2,5-di-t-butylhydroquinone], the estrogenic activity was “do not exhibit appreciable estrogenic activity”.
